pKi: −log10 of the molar value.
Biological target: T1, human factor Xa (Homo sapiens, UniProt P00742)
T1 construct: Purified human factor Xa; purchased Alexis Corporation, Nottingham, UK
Assay: Enzyme inhibition assay, chromogenic substrate pefachrome-FXA
Type: biochemical
Conditions: room temperature, 0.1M phosphate buffer, pH7.4

T1 sequence (P00742 235-488 limits assumed): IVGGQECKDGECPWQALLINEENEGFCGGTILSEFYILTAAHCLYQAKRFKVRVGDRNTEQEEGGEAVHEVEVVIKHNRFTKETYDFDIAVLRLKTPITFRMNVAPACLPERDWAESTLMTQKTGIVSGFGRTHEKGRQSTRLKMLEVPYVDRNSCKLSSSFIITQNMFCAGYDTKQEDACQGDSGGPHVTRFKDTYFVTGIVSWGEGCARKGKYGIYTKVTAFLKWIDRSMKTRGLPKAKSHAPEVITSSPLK
T1 sequence (P00742 41-179 partner limits assumed): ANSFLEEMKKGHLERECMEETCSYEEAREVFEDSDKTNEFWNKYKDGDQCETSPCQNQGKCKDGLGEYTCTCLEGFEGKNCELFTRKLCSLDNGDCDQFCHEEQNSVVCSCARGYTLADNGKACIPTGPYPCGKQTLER

pKi | SMILES
8.10 | CN1CCC(C2CCN(C(=O)[C@H](NC(=O)c3ccc4ccnc(N)c4c3)c3ccccc3)CC2)CC1 [Example 75, 1-Aminoisoquinolin-7-oyl-D-phenylglycine-4,4′-(1′-methyl)bipiperidinamide]
3.81 | N=C(N)c1ccccc1 [benzamidine]

Reference: patent US6420438B1, “1-amino-7-isoquinoline derivatives as serine protease inhibitors” (Tularik Limited, priority 1998, dated 2002)
